Drawing on ChEMBL document CHEMBL5715942, “A novel histone deacetylase 8 (HDAC8)-specific inhibitor PCI-34051 induces apoptosis in T-cell lymphomas” (Leukemia, 2008), this text covers Activity and GI50 for four compounds.

Assay [1] concerns Jurkat. Nature of the assay: Induction of apoptosis in human Jurkat cells assessed as intracellular calcium level at 0.8 uM in presence of Iodo-1 by spectrofluorimetric analysis. It counts as functional, cell-based.
Assay [2] deals with Jurkat. Nature of the assay: Induction of apoptosis in human Jurkat cells assessed as intracellular calcium level at 0.4 uM in presence of Iodo-1 by spectrofluorimetric analysis. It counts as functional, cell-based.
Assay [3] deals with J.gamma1. Put plainly: Induction of apoptosis in human J.gamma1 cells assessed as increased intracellular calcium level at 1 uM in presence of Iodo-1 by spectrofluorimetric analysis. It counts as functional, cell-based.
The test system of assay [4] is J.gamma1. Nature of the assay: Induction of apoptosis in human J.gamma1 cells at 0.2 uM incubated for 24 hrs by Annexin-V staining based flow cytometry analysis relative to control. It counts as functional.
The subject of assay [5] is J.gamma1. Nature of the assay: Induction of apoptosis in human J.gamma1 cells assessed as increased intracellular calcium level in presence of Iodo-1 and U73122 by spectrofluorimetric analysis. It counts as functional, cell-based.
The subject of assay [6] is J.gamma1. Put plainly: Induction of apoptosis in human J.gamma1 cells assessed as increased intracellular calcium level at 1 uM in presence of Iodo-1 and Ionomycin by spectrofluorimetric analysis. It counts as functional, cell-based.
For assay [7], the system named is Jurkat. Put plainly: Induction of apoptosis in human Jurkat cells assessed as increase in intracellular calcium level in presence of Iodo-1 by spectrofluorimetric analysis. To be noted: dose 0.25-1 µM. It counts as functional, cell-based.
Assay [8] has as its system Jurkat. Nature of the assay: Induction of apoptosis in human Jurkat cells assessed as increase in intracellular calcium level at 0.25 to 1 uM in presence of Iodo-1 and Ionomycin by spectrofluorimetric analysis. It counts as functional, cell-based. As to conditions: dose 0.25-1 µM.
Assay [9] has as its system Jurkat. Put plainly: Induction of apoptosis in human Jurkat cells assessed as increased intracellular calcium level in presence of Iodo-1 and U73122 by spectrofluorimetric analysis. It counts as functional, cell-based.
Another assay deals with RPMI-8226. Nature of the assay: Anti-proliferative activity against human RPMI-8226 cells assessed as growth inhibition incubated for 72 hrs by alamar blue staining based fluorometric assay. The assay is classed as functional.
For assay [10], the system named is MCF7. Put plainly: Induction of apoptosis in human MCF7 cells incubated for 72 hrs by Annexin-V staining based flow cytometry analysis relative to control. It counts as functional.
The test system of assay [11] is MCF7. Nature of the assay: Anti-proliferative activity against human MCF7 cells assessed as growth inhibition incubated for 72 hrs by alamar blue staining based fluorometric assay. It counts as functional.
Another assay concerns Ramos. Put plainly: Anti-proliferative activity against human Ramos cells assessed as growth inhibition incubated for 72 hrs by alamar blue staining based fluorometric assay. It counts as functional.
Assay [12] deals with RKO. Nature of the assay: Anti-proliferative activity against human RKO cells assessed as growth inhibition incubated for 72 hrs by alamar blue staining based fluorometric assay. The assay is classed as functional.
For assay [13], the system named is OVCAR-3. Put plainly: Anti-proliferative activity against human OVCAR-3 cells assessed as growth inhibition incubated for 72 hrs by alamar blue staining based fluorometric assay. The assay is classed as functional.
A further assay relates to HeLa. Nature of the assay: Anti-proliferative activity against human HeLa cells assessed as growth inhibition incubated for 72 hrs by alamar blue staining based fluorometric assay. It counts as functional.
Assay [14] relates to Jurkat. Nature of the assay: Cytotoxicity in human Jurkat cells assessed as histone acetylation at 0.2 uM incubated for 24 hrs by Western blotting analysis. It counts as functional, cell-based.
In assay [15] the test system is Jurkat. Nature of the assay: Induction of apoptosis in human Jurkat cells assessed as decrease in FL-Bid at 5 uM incubated for 24 hrs by Western blotting analysis.
In assay [16] the test system is A549. Put plainly: Anti-proliferative activity against human A549 cells assessed as growth inhibition incubated for 72 hrs by alamar blue staining based fluorometric assay. It counts as functional.
For the next assay, the system named is CCRF-HSB-2. Put plainly: Anti-proliferative activity against human CCRF-HSB-2 cells assessed as growth inhibition incubated for 72 hrs by alamar blue staining based fluorometric assay. The assay is classed as functional.
In assay [17] the test system is HCT-116. Put plainly: Induction of apoptosis in human HCT-116 cells incubated for 72 hrs by Annexin-V staining based flow cytometry analysis relative to control. The assay is classed as functional.
The next assay deals with K562. Put plainly: Anti-proliferative activity against human K562 cells assessed as growth inhibition incubated for 72 hrs by alamar blue staining based fluorometric assay. It counts as functional.
The test system of assay [18] is RKO. Nature of the assay: Induction of apoptosis in human RKO cells incubated for 72 hrs by Annexin-V staining based flow cytometry analysis relative to control. It counts as functional.
Another assay has as its system SUD4. Put plainly: Anti-proliferative activity against human SU-DHL-4 cells assessed as growth inhibition incubated for 72 hrs by alamar blue staining based fluorometric assay. It counts as functional.
Another assay deals with THP-1. Put plainly: Anti-proliferative activity against human THP-1 cells assessed as growth inhibition incubated for 72 hrs by alamar blue staining based fluorometric assay. It counts as functional.
Assay [19] relates to Jurkat. Put plainly: Anti-proliferative activity against human Jurkat cells assessed as growth inhibition incubated for 72 hrs by alamar blue staining based fluorometric assay. The assay is classed as functional.
The test system of assay [20] is Jurkat. Nature of the assay: Cytotoxicity in tubulin in human Jurkat cells assessed as tubulin acetylation at 0.2 uM incubated for 24 hrs by Western blotting analysis. It counts as functional, cell-based.
A further assay concerns DB. Nature of the assay: Anti-proliferative activity against human DB cells assessed as growth inhibition incubated for 72 hrs by alamar blue staining based fluorometric assay. The assay is classed as functional.
Assay [21] concerns OVCAR-3. Put plainly: Induction of apoptosis in human OVCAR-3 cells incubated for 72 hrs by Annexin-V staining based flow cytometry analysis relative to control. The assay is classed as functional.
A further assay deals with MOLT-4. Put plainly: Anti-proliferative activity against human MOLT-4 cells assessed as growth inhibition incubated for 72 hrs by alamar blue staining based fluorometric assay. The assay is classed as functional.
Assay [22] has as its system HCT-116. Put plainly: Anti-proliferative activity against human HCT-116 cells assessed as growth inhibition incubated for 72 hrs by alamar blue staining based fluorometric assay. It counts as functional.
The test system of assay [23] is A549. Put plainly: Induction of apoptosis in human A549 cells incubated for 72 hrs by Annexin-V staining based flow cytometry analysis relative to control. It counts as functional.
The next assay relates to HuT78. Put plainly: Anti-proliferative activity against human HuT78 cells assessed as growth inhibition incubated for 72 hrs by alamar blue staining based fluorometric assay. It counts as functional.
For the next assay, the system named is U-87 MG. Nature of the assay: Anti-proliferative activity against human U87 cells assessed as growth inhibition incubated for 72 hrs by alamar blue staining based fluorometric assay. The assay is classed as functional, U-87MG ATCC.
Another assay deals with Raji. Nature of the assay: Anti-proliferative activity against human Raji cells assessed as growth inhibition incubated for 72 hrs by alamar blue staining based fluorometric assay. The assay is classed as functional.

Active and inactive are the calls of the source. The calls are words filed in the database; no cut-off is given here.

Turning to `COc1ccc2c(c1)CC[C@@H]1[C@@H]2CC[C@]2(C)[C@@H](NCCCCCCN3C(=O)CCC3=O)CC[C@@H]12`, in the assay on Jurkat [1], the result was inactive.

For the compound `COc1ccc2c(c1)CC[C@@H]1[C@@H]2CC[C@]2(C)[C@@H](NCCCCCCN3C(=O)C=CC3=O)CC[C@@H]12`, in the assay on Jurkat [2], the outcome was inactive.

For `C/C=C(/C)C(=O)O[C@H]1C(C)=C2[C@H]([C@@H]1OC(=O)CCCCCCC)[C@@](C)(OC(C)=O)C[C@H](OC(=O)CCC)[C@@]1(O)[C@H]2OC(=O)[C@@]1(C)O` [THAPSIGARGIN], the result in the assay on J.gamma1 [3], with J.gamma1 [5], in the assay on J.gamma1 [6], with Jurkat [8] and with Jurkat [9] was Active. Also, the values for the Activity with J.gamma1 [4] and in the assay on Jurkat [7] were 12% and “Dose-Dependent Effect”, respectively.

As to `CN(C)Cc1c(C(=O)NCCOc2ccc(C(=O)NO)cc2)oc2ccccc12.Cl` [ABEXINOSTAT HYDROCHLORIDE], the GI50 with RPMI-8226 turned out to be 120 nM; with MCF7 [11], 150 nM; in the assay on Ramos, 130 nM; with RKO [12], 1500 nM; in the assay with OVCAR-3 [13], 160 nM; in the assay on HeLa it was 200 nM. Moreover, the GI50 in the assay with A549 [16] was 180 nM; in the assay on CCRF-HSB-2, 100 nM; in the assay on K562, 150 nM; with SUD4, 100 nM; in the assay with THP-1, 75 nM; in the assay on Jurkat [19], 110 nM. Besides, the GI50 came to 150 nM in the assay on DB; 120 nM in the assay with MOLT-4; 200 nM in the assay with HCT-116 [22]; 110 nM with HuT78; 1200 nM in the assay with U-87 MG; 120 nM in the assay on Raji. The Activity in the assay with MCF7 [10] came out at 37%; in the assay with HCT-116 [17] it was 70%; in the assay on RKO [18] it was 45%; in the assay on OVCAR-3 [21], 55%; with A549 [23], 47%. Moreover, the result in the assay on Jurkat [14], in the assay on Jurkat [15] and in the assay on Jurkat [20] was Active.
